Converted amounts (≈) assume the structure as drawn. Structures can show the parent of a compound that is named as a salt.

Broadly, the MIC is the least concentration at which growth counts as inhibited.

One test concerns Helicobacter pylori. The experiment in a line: Minimal inhibitory concentration (MIC) against Helicobacter pylori, urease read-out, 5 clinical strains. Particulars: 5 H. pylori clinical strains, 10% blood agar, 48 h at 37° C., microaerophilic, read-out: MIC. The format is cell-based. The protocol:
The anti-Helicobacter activity of the subject compounds was assessed by the following in-vitro test procedure.
The activity of test compounds against Helicobacter pylori was determined against a standard set of 5 H. priori strains obtained from clinical material. Minimal inhibitory concentrations (MICs) were determined by measuring the activity of H. pylori urease after treatment of growing cultures of the bacteria with the antimicrobial agents.
The test compounds were dissolved in DMSO at a concentration of 10^-3 M. A dilution to 10^-4 M in DMSO was also prepared. 10 μl volumes of these solutions were pipetted in the wells of Repli-Dishes (®Sterilin). Wells containing DMSO alone were included as controls in each Repli-Dish. Ampicillin ((+)-6-[(2-amino-2-phenylacetyl)amino]-3,3-dimethyl-7-oxo-4-thia-1-azabicyclo[3.2.0]heptane-2-carboxylic acid trihydrate) and metronidazole (2-methyl-5-nitro-1H-imidazol-1-ethanol) were included as reference compounds in each batch of tests. (These compounds were tested at final concentrations of 10^-5, 10^-6, 10^-7 and 10^-8 M). Test plates were stored at 4° C. until used. The five isolates of H. pylori were maintained by subculture on 10% blood agar every 2 or 3 days. The bacteria were grown at 37° C. under an atmosphere containing 5% oxygen, 10% CO2 and 85% nitrogen. Suspensions of Helicobacter pylori for inoculum were prepared in Brain-heart infusion broth and adjusted to an absorbance of 1.5±0.3 at […].
Freshly prepared 10% blood agar held at 45° C. was added in 1 ml volumes to the wells of the test plates, thus diluting the test compounds to 10^-5 and 10^-6 M. The medium was allowed to cool, then 10 μl volumes of bacterial suspension were pipetted on the agar surface. The plates were incubated for 48 h at 37° C. under the microaerophilic atmosphere described above. […] After the 48 h of incubation, 1 ml volumes of urease broth were gently added to each Repli-Dish well and the plates were incubated at 37° C. for 2 h. 100 μl samples of fluid from each well were then pipetted into the wells of 96-place microdilution plates. A purple colour was interpreted as growth, yellow-orange as no growth of H. pylori. By this means a clear end-point was obtained, from which the inhibitory effects could be determined.
Table 1 summarizes the MIC values determined by the above procedure for a subset of the subject compounds.
`CCC(C(O)c1ccc(Cl)cc1)n1ncn(-c2ccc(N3CCN(c4ccc(O)cc4)CC3)nc2)c1=O` (racemic) [compound 14, (±)-2-[1-[(4-chlorophenyl)hydroxymethyl]propyl]-2,4-dihydro-4-[6-[4-(4-hydroxyphenyl)-1-piperazinyl]-3-pyridinyl]-3H-1,2,4-triazol-3-one]: the MIC was found to be 0.1 µM (≈ 0.0521 µg/mL).

With `CC[C@H]([C@H](O)c1ccc(Cl)cc1)n1ccn(-c2ccc(N3CCN(c4ccc(OC)cc4)CC3)nc2)c1=O` (relative stereo) [compound 38, (±)-(R*,R*)-1-[1-[(4-chlorophenyl)hydroxymethyl]propyl]-1,3-dihydro-3-[6-[4-(4-methoxyphenyl)-1-piperazinyl]-3-pyridinyl]-2H-imidazol-2-one], the MIC came to 0.1 µM (≈ 0.0534 µg/mL).

As to `CCC(C(=O)c1ccc(Cl)cc1)n1ncn(-c2ccc(N3CCN(c4ccc(OC)c(OC)c4)CC3)nc2)c1=O` (racemic) [compound 48, (±) -2-[1-(4-chlorobenzoyl)propyl]-4-[6-[4-(3,4-dimethoxyphenyl)-1-piperazinyl]-3-pyridinyl]-2,4-dihydro-3H-1,2,4-triazol-3-one dihydrochloride], the MIC was not above 0.001 µM.

For `Cc1nn(C(C)C(O)c2ccc(Br)cc2)c(=O)n1-c1ccc(N2CCN(c3ccc(O)cc3)CC2)nc1` (stereo not shown) [compound 23, 2-[2-(4-bromophenyl)-2-hydroxy-1-methylethyl]-2,4-dihydro-4-[6-[4-(4-hydroxy-phenyl)-1-piperazinyl]-3-pyridinyl]-5-methyl-3H-1,2,4-triazol-3-one], the MIC is 1 µM (≈ 0.565 µg/mL).

`Cc1ccc(C(O)C(C)n2ncn(-c3ccc(N4CCN(c5ccc(O)cc5)CC4)cc3)c2=O)cc1` (stereo not shown) [compound 33, 2,4-dihydro-2-[2-hydroxy-1-methyl-2-(4-methylphenyl)ethyl]-4-[4-[4-(4-hydroxyphenyl)-1-piperazinyl]phenyl]-3H-1,2,4-triazol-3-one]: the MIC worked out at 1 µM (≈ 0.486 µg/mL).

With `CCC[C@H]([C@H](O)c1ccc(Cl)cc1)n1ncn(-c2ccc(N3CCN(c4cccc(OC)c4)CC3)nc2)c1=O` (relative stereo) [compound 40, (±)-(R* ,R*)-2-[1-[(4-chlorophenyl)hydroxymethyl]butyl]-2,4-dihydro-4-[6-[4-(3-methoxyphenyl)-1-piperazinyl]-3-pyridinyl]-3H-1,2,4-triazol-3-one], the MIC came out at 0.1 µM (≈ 0.0549 µg/mL).

For `CCC(C(=O)c1ccc(Cl)cc1)n1ncn(-c2ccc(N3CCC(c4ccc(OC)c(OC)c4)CC3)nc2)c1=O` (racemic) [compound 45, (±)-2-[1-(4-chlorobenzoyl)propyl]-4-[6-[4-(3,4-dimethoxyphenyl)-1-piperidinyl]-3-pyridinyl]-2,4-dihydxo-3H-1,2,4-triazol-3-one], the MIC was 0.01 µM (≈ 0.00562 µg/mL).

`CCC(C(=O)c1ccc(Cl)cc1)n1ncn(-c2ccc(N3CCN(c4ccc(O)cc4)CC3)nc2)c1=O` (racemic) [compound 25, (±)-2-[1-(4-chlorobenzoyl)propyl]-2,4-dihydro-4-[6-[4-(4-hydroxyphenyl)-1-piperazinyl]-3-pyridinyl]-3H-1,2,4-triazol-3-one]: the MIC was determined as 0.1 µM (≈ 0.0519 µg/mL).

Turning to `CCC(C(=O)c1ccc(Cl)cc1)n1ncn(-c2ccc(N3CCN(c4ccc(OC)cn4)CC3)cc2)c1=O` (racemic) [compound 3, (±)-2-[1-(4-chlorobenzoyl)propyl]-2,4-dihydro-4-[4-[4-(5-methoxy-2-pyridinyl)-1-piperazinyl]phenyl]-3H-1,2,4-triazol-3-one], the MIC turned out to be 0.1 µM (≈ 0.0533 µg/mL).

Staying with this test, now noted: 48 h.
On to `CC(C(=O)c1ccc(Br)cc1)n1ncn(-c2ccc(N3CCN(c4ccc(O[Si](C)(C)C(C)(C)C)cc4)CC3)cc2)c1=O` (stereo not shown) [compound 47, 2-[1-(4-bromobenzoyl)ethyl]-4-[4-[4-[4-[[(1,1-dimethylethyl)dimethylsilyl]oxy]phenyl]-1-piperazinyl]phenyl]-2,4-dihydro-3H-1,2,4-triazol-3-one], for which the MIC was found to be 1 µM (≈ 0.663 µg/mL).

These data come from patent US5650411A, “Substituted azolone derivatives” (Janssen Pharmaceutica N.V., priority 1993, dated 1997).
